Assay: xn = mol fraction of the nth substance listed

OCCOCCOCCO + CN(C)C=O
viscosity [mPa·s], 101 kPa
Conditions | 293.15 K | 298.15 K | 303.15 K | 308.15 K | 313.15 K | 318.15 K
x1 = 0.025 | 1 | 0.933 | 0.868 | 0.847 | 0.768 | 0.727
x1 = 0.0513 | 1.15 | 1.07 | 0.987 | 0.952 | 0.876 | 0.815
x1 = 0.0791 | 1.33 | 1.24 | 1.13 | 1.08 | 0.997 | 0.921
x1 = 0.1085 | 1.54 | 1.42 | 1.31 | 1.22 | 1.15 | 1.05
x1 = 0.1396 | 1.81 | 1.68 | 1.51 | 1.39 | 1.32 | 1.21
x1 = 0.1726 | 2.12 | 1.95 | 1.76 | 1.6 | 1.52 | –
x1 = 0.2077 | 2.53 | 2.3 | 2.07 | 1.85 | 1.76 | –
x1 = 0.245 | 3.02 | 2.74 | 2.44 | 2.16 | 2.06 | –
x1 = 0.2848 | 3.64 | 3.27 | 2.88 | 2.53 | 2.41 | –
x1 = 0.3274 | 4.45 | 3.93 | 3.45 | 3 | 2.85 | –
x1 = 0.373 | 5.37 | 4.74 | 4.12 | 3.55 | 3.33 | –
x1 = 0.422 | 6.64 | 5.77 | 4.96 | 4.25 | 3.96 | –
x1 = 0.4748 | 8.33 | 7.17 | 6.09 | 5.12 | 4.79 | –
x1 = 0.5318 | 10.3 | 8.94 | 7.5 | 6.17 | 5.77 | –
x1 = 0.5935 | 12.9 | 10.9 | 9.08 | 7.6 | 6.92 | –
x1 = 0.6607 | 16.5 | 13.7 | 11.3 | 9.37 | 8.38 | –
x1 = 0.7339 | 21.2 | 17.4 | 14.2 | 11.6 | 10.3 | –
x1 = 0.8141 | 27.4 | 22.2 | 17.9 | 14.4 | 12.8 | –
x1 = 0.9024 | 35.5 | 28.6 | 22.7 | 17.6 | 15.8 | –

OCCOCCOCCO + CS(C)=O
viscosity [mPa·s], 100 kPa
Conditions | 293.15 K | 298.15 K | 303.15 K | 308.15 K | 313.15 K | 318.15 K
x1 = 0.0266 | 2.4 | 2.27 | 2.01 | 1.87 | 1.72 | 1.53
x1 = 0.0547 | 2.72 | 2.64 | 2.36 | 2.14 | 1.97 | 1.74
x1 = 0.0842 | 3.09 | 3.02 | 2.69 | 2.42 | 2.22 | 1.95
x1 = 0.1155 | 3.58 | 3.49 | 3.08 | 2.77 | 2.52 | 2.21
x1 = 0.1485 | 4.15 | 4.03 | 3.55 | 3.17 | 2.87 | 2.5
x1 = 0.1822 | 4.76 | 4.64 | 4.05 | 3.61 | 3.24 | –
x1 = 0.2192 | 5.55 | 5.38 | 4.67 | 4.13 | 3.7 | –
x1 = 0.2575 | 6.44 | 6.21 | 5.36 | 4.7 | 4.19 | –
x1 = 0.3003 | 7.57 | 7.25 | 6.2 | 5.42 | 4.79 | –
x1 = 0.3422 | 8.76 | 8.35 | 7.09 | 6.15 | 5.42 | –
x1 = 0.3888 | 10.2 | 9.68 | 8.15 | 7.03 | 6.15 | –
x1 = 0.4385 | 11.9 | 11.2 | 9.36 | 8.03 | 6.98 | –
x1 = 0.4915 | 13.9 | 13 | 10.8 | 9.17 | 7.91 | –
x1 = 0.5521 | 16.4 | 15.2 | 12.5 | 10.6 | 9.07 | –
x1 = 0.6114 | 19.2 | 17.6 | 14.3 | 12 | 10.2 | –
x1 = 0.6754 | 22.3 | 20.3 | 16.4 | 13.7 | 11.5 | –
x1 = 0.7463 | 26 | 23.6 | 18.9 | 15.7 | 13.1 | –
x1 = 0.8233 | 30.6 | 27.5 | 21.8 | 17.9 | 14.9 | –
x1 = 0.9083 | 35.9 | 32 | 25.2 | 20.5 | 16.9 | –

From the CheMixHub viscosity set
